From patent US20160068514A1, “HALO AND TRIFLUOROMETHYL SUBSTITUTED OREXIN RECEPTOR ANTAGONISTS” (MERCK SHARP & DOHME CORP., priority 2013, published 2016)

How the values were obtained:
[1] = biological target: T1, human orexin-2 receptor (hOX2R) (Homo sapiens, UniProt O43614); experiment: FLIPR Ca2+ Flux Assay, hOX2R; type: cell-based; conditions: CHO cells expressing hOX2R; agonist Ala-6,12 human orexin-A 70 pM
T1 construct: expressed in transfected cells; host or cells: Chinese hamster ovary (CHO) cells
T1 sequence (O43614 1-444): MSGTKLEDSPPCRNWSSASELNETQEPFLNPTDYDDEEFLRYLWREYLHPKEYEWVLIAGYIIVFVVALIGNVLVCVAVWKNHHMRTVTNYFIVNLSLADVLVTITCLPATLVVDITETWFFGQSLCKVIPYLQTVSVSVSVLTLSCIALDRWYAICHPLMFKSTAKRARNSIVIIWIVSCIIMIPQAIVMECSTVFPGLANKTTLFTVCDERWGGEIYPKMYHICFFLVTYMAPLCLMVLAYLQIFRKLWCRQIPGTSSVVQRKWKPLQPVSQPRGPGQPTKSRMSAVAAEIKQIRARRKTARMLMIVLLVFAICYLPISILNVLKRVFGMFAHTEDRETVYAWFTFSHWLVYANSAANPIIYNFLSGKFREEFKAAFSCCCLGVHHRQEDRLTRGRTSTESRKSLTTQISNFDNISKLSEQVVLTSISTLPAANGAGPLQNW
Source text: (§1) The utility of the compounds in accordance with the present invention as orexin receptor OX1R and/or OX2R antagonists may be readily determined without undue experimentation by methodology well known in the art, including the “FLIPR Ca^2+ Flux Assay” (Okumura et al., Biochem. Biophys. Res. Comm. 2001, 280:976-981). Briefly, for intracellular calcium measurements, Chinese hamster ovary (CHO) cells expressing the orexin-1 receptor (e.g., rat or human) or the orexin-2 receptor (e.g., rat or human), are grown in Iscove's modified DMEM containing 2 mM L-glutamine, […], 1% hypoxanthine-thymidine supplement, 100 U/ml penicillin, 100 μg/ml streptomycin and 10% heat-inactivated fetal calf serum (FCS). The cells are seeded at approximately 20,000 cells per well into 384-well clear bottom sterile plates coated with poly-D-lysine. The seeded plates are incubated overnight at 37° C. and 5% CO2. Human ala-6,12 orexin-A can be used as the agonist and prepared as a 1 mM stock solution in 1% bovine serum albumin (BSA) and diluted in assay buffer (HBSS containing 20 mM HEPES, 0.1% BSA and 2.5 mM probenecid, pH7.4) for use in the assay at a final concentration of 70 pM. Test compounds are prepared as 10 mM stock solution in DMSO, then diluted in 384-well plates, first in DMSO, then in assay buffer. On the day of the assay, cells are washed 3 times with 100 μl assay buffer and then incubated for 60 minutes (37° C., 5% CO2) in 60 μl assay buffer containing 1 μM Fluo-4AM ester, 0.02% pluronic acid, and 1% BSA. The dye loading solution is then aspirated and cells are washed 3 times with 100 μl assay buffer. 30 μl of that same buffer is left in each well. Within the Fluorescent Imaging Plate Reader (FLIPR, Molecular Devices), test compounds are added to the plate in a volume of 25 μl, incubated for 5 minutes, and then 25 μl of agonist is added. Fluorescence is measured for each well at 1 second intervals for 5 minutes, and the height of each fluorescence peak is compared to the height of the fluorescence peak induced by 70 pM of agonist ala-6,12 orexin-A with buffer in place of test compound. IC50 value for the test compound is determined to be the concentration of compound needed to inhibit 50% of the agonist response. Alternatively, compound potency can be assessed using a radioligand binding assay (described in Bergman et. al. Bioorg. Med. Chem. Lett. 2008, 18:1425-1430) in which the inhibition constant (Ki) is determined in membranes prepared from CHO cells expressing either the OX1 or OX2 receptor. The intrinsic orexin receptor antagonist activity of a compound of the present invention may be determined by these assays.
(§2) Chinese hamster ovary (CHO) cells expressing the human orexin-1 receptor (hOX1R) or the human orexin-2 receptor (hOX2R) were grown in Iscove's modified DMEM containing 2 mM L-glutamine, […], 1% hypoxanthine-thymidine supplement, 100 U/ml penicillin, 100 μg/ml streptomycin and 10% heat-inactivated fetal calf serum (FCS). The cells were seeded at −20,000 cells/well into Becton-Dickinson black 384-well clear bottom sterile plates coated with poly-D-lysine. All reagents were from GIBCO-Invitrogen Corp. The seeded plates were incubated overnight at 37° C. and 5% CO2. Ala-6,12 human orexin-A, used as the agonist, was prepared as a 1 mM stock solution in 1% bovine serum albumin (BSA) and diluted in assay buffer (HBSS containing 20 mM HEPES, 0.1% BSA and 2.5 mM probenecid, pH7.4) for use in the assay at a final concentration of 70 pM. Test compounds were prepared as 10 mM stock solution in DMSO, then diluted in 384-well plates, first in DMSO, then assay buffer.
(§3) On the day of the assay, cells were washed 3× with 100 μl assay buffer and then incubated for 60 minutes (37° C., 5% CO2) in 60 μl assay buffer containing 1 μM Fluo-4AM ester, 0.02% pluronic acid, and 1% BSA. The dye loading solution was then aspirated and cells were washed 3× with 100 μl assay buffer. 30 μl of that same buffer was left in each well. […]

[2] = biological target: T2, human orexin-1 receptor (hOX1R) (Homo sapiens, UniProt O43613); experiment: FLIPR Ca2+ Flux Assay, hOX1R; type: cell-based; conditions: CHO cells expressing hOX1R; agonist Ala-6,12 human orexin-A 70 pM
T2 construct: expressed in transfected cells; host or cells: Chinese hamster ovary (CHO) cells
T2 sequence (O43613 1-425): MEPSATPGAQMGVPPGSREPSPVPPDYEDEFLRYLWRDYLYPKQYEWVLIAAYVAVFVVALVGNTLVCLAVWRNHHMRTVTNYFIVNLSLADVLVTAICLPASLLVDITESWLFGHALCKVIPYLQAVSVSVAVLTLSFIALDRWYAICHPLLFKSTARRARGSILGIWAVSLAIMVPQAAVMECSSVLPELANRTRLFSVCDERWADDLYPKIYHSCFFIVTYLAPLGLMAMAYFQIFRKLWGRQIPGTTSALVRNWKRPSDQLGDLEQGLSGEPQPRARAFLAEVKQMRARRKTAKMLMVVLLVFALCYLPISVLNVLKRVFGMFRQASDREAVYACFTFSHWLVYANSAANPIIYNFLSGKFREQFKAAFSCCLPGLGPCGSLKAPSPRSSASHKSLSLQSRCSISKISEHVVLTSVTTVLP
Source text: as §1, §2, §3

| IC50 [1] | IC50 [2] | SMILES |
| --- | --- | --- |
| 38.5 nM | 839 nM | C[C@@H]1CC[C@@H](Oc2nccc(C(F)(F)F)c2F)CN1C(=O)c1ccccc1-n1nccn1 [Example 1, 3-Fluoro-2-{[(3R,6R)-6-methyl-1-{[2-(2H-1,2,3-triazol-2-yl)phenyl]carbonyl}piperidin-3-yl]oxy}-4-(trifluoromethyl)pyridine] |
| 105 nM |  | COc1ccc(C(=O)N2C[C@H](Oc3nccc(C(F)(F)F)c3F)CC[C@H]2C)c(-n2nccn2)n1 [Example 2, 3-fluoro-2-{[(3R,6R)-1-{[6-methoxy-2-(2H-1,2,3-triazol-2-yl)pyridin-3-yl]carbonyl}-6-methylpiperidin-3-yl]oxy}-4-(trifluoromethyl)pyridine] |
| 17.8 nM | 377 nM | C[C@@H]1CC[C@@H](Oc2cc(C(F)(F)F)ccn2)CN1C(=O)c1ccccc1-n1nccn1 [Example 3, 2-{[(3R,6R)-6-methyl-1-{[2-(2H-1,2,3-triazol-2-yl)phenyl]carbonyl}piperidin-3-yl]oxy}-4-(trifluoromethyl)pyridine] |
| 8.8 nM | 118 nM | Cc1c(I)ccnc1O[C@@H]1CC[C@@H](C)N(C(=O)c2ccccc2-n2nccn2)C1 [Example 4, 4-iodo-3-methyl-2-{[(3R,6R)-6-methyl-1-{[2-(2H-1,2,3-triazol-2-yl)phenyl]carbonyl}piperidin-3-yl]oxy}pyridine] |
| 7.3 nM | 414 nM | C[C@@H]1CC[C@@H](Oc2cc(I)ccn2)CN1C(=O)c1ccccc1-n1nccn1 [Example 5, 4-iodo-2-{[(3R,6R)-6-methyl-1-{[2-(2H-1,2,3-triazol-2-yl)phenyl]carbonyl}piperidin-3-yl]oxy}pyridine] |
| 10 nM | 828 nM | C[C@@H]1CC[C@@H](Oc2cc(C(F)(F)F)ccn2)CN1C(=O)c1ccccc1-n1ncnn1 [Example 6, 2-{[(3R,6R)-6-Methyl-1-{[2-(2H-tetrazol-2-yl)phenyl]carbonyl}piperidin-3-yl]oxy}-4-(trifluoromethyl)pyridine] |
| 85.7 nM |  | COc1ccc(C(=O)N2C[C@H](Oc3cc(Cl)ccn3)CC[C@H]2C)c(-n2nccn2)n1 [Example 7, 3-({(2R,5R)-5-[(4-chloropyridin-2-yl)oxy]-2-methylpiperidin-1-yl}carbonyl)-6-methoxy-2-(2H-1,2,3-triazol-2-yl)pyridine] |
| 49.3 nM | 2500 nM | COc1ccc(C(=O)N2C[C@H](Oc3nccc(I)c3OC)CC[C@H]2C)c(-n2nccn2)n1 [Example 8, 4-iodo-3-methoxy-2-{[(3R,6R)-1-{[6-methoxy-2-(2H-1,2,3-triazol-2-yl)pyridin-3-yl]carbonyl}-6-methylpiperidin-3-yl]oxy}pyridine] |
| 36.3 nM |  | COc1ccc(C(=O)N2C[C@H](Oc3cc(Br)ccn3)CC[C@H]2C)c(-n2nccn2)n1 [Example 9, 3-({(2R,5R)-5-[(4-bromopyridin-2-yl)oxy]-2-methylpiperidin-1-yl}carbonyl)-6-methoxy-2-(2H-1,2,3-triazol-2-yl)pyridine] |
| 55 nM | 3850 nM | C[C@@H]1CC[C@@H](Oc2cc(F)ccn2)CN1C(=O)c1ccccc1-n1ncnn1 [Example 10, 4-fluoro-2-{[(3R,6R)-6-methyl-1-{[2-(2H-tetrazol-2-yl)phenyl]carbonyl}piperidin-3-yl]oxy}pyridine] |
| 10 nM | 917 nM | C[C@@H]1CC[C@@H](Oc2cc(Cl)ccn2)CN1C(=O)c1ccccc1-n1ncnn1 [Example 11] |
| 10 nM | 986 nM | C[C@@H]1CC[C@@H](Oc2cc(Br)ccn2)CN1C(=O)c1ccccc1-n1ncnn1 [Example 12, 4-bromo-2-{[(3R,6R)-6-methyl-1-{[2-(2H-tetrazol-2-yl)phenyl]carbonyl}piperidin-3-yl]oxy}pyridine] |
| 467 nM |  | COc1ccc(C(=O)N2C[C@H](Oc3cc(F)ccn3)CC[C@H]2C)c(-n2nccn2)n1 [Example 13, 3-({(2R,5R)-5-[(4-fluoropyridin-2-yl)oxy]-2-methylpiperidin-1-yl}carbonyl)-6-methoxy-2-(2H-1,2,3-triazol-2-yl)pyridine] |
| 78.7 nM |  | COc1ccc(C(=O)N2C[C@H](Oc3nccc(I)c3OC)CC[C@H]2C)c(-c2ncccn2)n1 [Example 14, 2-[3-({(2R,5R)-5-[(4-Iodo-3-methoxypyridin-2-yl)oxy]-2-methylpiperidin-1-yl}carbonyl)-6-methoxypyridin-2-yl]pyrimidine] |
| 10.8 nM | 548 nM | C[C@@H]1CC[C@@H](Oc2cc(Cl)ccn2)CN1C(=O)c1ccccc1-n1nccn1 [Example 15, 4-Chloro-2-{[(3R,6R)-6-methyl-1-{[2-(2H-1,2,3-triazol-2-yl)phenyl]carbonyl}piperidin-3-yl]oxy}pyridine] |
| 34 nM | 2310 nM | C[C@@H]1CC[C@@H](Oc2cc(F)ccn2)CN1C(=O)c1ccccc1-n1nccn1 [Example 16, 4-fluoro-2-{[(3R,6R)-6-methyl-1-{[2-(2H-1,2,3-triazol-2-yl)phenyl]carbonyl}piperidin-3-yl]oxy}pyridine] |
| 3.8 nM | 179 nM | C[C@@H]1CC[C@@H](Oc2cc(Br)ccn2)CN1C(=O)c1ccccc1-n1nccn1 [Example 17, 4-bromo-2-{[(3R,6R)-6-methyl-1-{[2-(2H-1,2,3-triazol-2-yl)phenyl]carbonyl}piperidin-3-yl]oxy}pyridine] |
| 132 nM |  | C[C@@H]1CC[C@@H](Oc2cccc(F)c2)CN1C(=O)c1ccccc1-n1nccn1 [Example 18, (2R,5R)-5-(3-fluorophenoxy)-2-methyl-1-{[2-(2H-1,2,3-triazol-2-yl)phenyl]carbonyl}piperidine] |
